Results reported in patent US8952024B2, “Herbicidal pyrimidone derivatives” (E I du Pont de Nemours and Company, priority 2009, dated 2015).

What was measured:
Type in all cases: in vivo
[1] = tested on: canarygrass (Phalaris minor); experiment: Test B postemergence plant response
In short: (§1)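 Plants at the 1- to 4-leaf stage (2 to 18 cm tall), grown in pots of peat moss/vermiculite medium with wetting agent and starter nutrients, received postemergence applications of test chemicals. After 13 to 15 days in a greenhouse, injury was rated visually against untreated controls on a 0 (no effect) to 100 (complete control) scale.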

[2] = tested on: chickweed (Stellaria media); experiment: Test B postemergence plant response
In short: as §1

[3] = tested on: winter barley (Hordeum vulgare); experiment: Test B postemergence plant response
In short: as §1

[4] = tested on: windgrass (Apera spica-venti); experiment: Test B postemergence plant response
In short: as §1

[5] = tested on: rice (Oryza sativa); experiment: Test B flooded paddy test; settings: for Plant response rating, Flood, Rice: 250 g ai/ha, flooded paddy test, visual rating on 0 to 100 scale (0 no effect, 100 complete control) after 13 to 15 days; for Plant response rating, Rice: Flood (flooded paddy test), 13 to 15 days
In short: (§2)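 Post-flood paddy application: compounds are introduced into water 3 cm deep over the soil, reaching plants at the 2-leaf stage. The water level is maintained, and after 13–15 days under greenhouse conditions, response is judged by eye relative to controls, where 100 means complete control.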

[6] = tested on: barnyardgrass (Echinochloa crus-galli); experiment: Test B flooded paddy test; settings: for Plant response rating, Flood, Barnyardgrass: 250 g ai/ha, flooded paddy test, visual rating on 0 to 100 scale (0 no effect, 100 complete control) after 13 to 15 days; for Plant response rating, Barnyardgrass: Flood (flooded paddy test), 13 to 15 days
In short: as §2

[7] = tested on: umbrella sedge (Cyperus difformis); experiment: Test B flooded paddy test; settings: for Plant response rating, Flood, Sedge, Umbrella: 250 g ai/ha, flooded paddy test, visual rating on 0 to 100 scale (0 no effect, 100 complete control) after 13 to 15 days; for Plant response rating, Sedge, Umbrella: Flood (flooded paddy test), 13 to 15 days
In short: as §2

[8] = tested on: ducksalad (Heteranthera limosa); experiment: Test B flooded paddy test; settings: for Plant response rating, Flood, Ducksalad: 250 g ai/ha, flooded paddy test, visual rating on 0 to 100 scale (0 no effect, 100 complete control) after 13 to 15 days; for Plant response rating, Ducksalad: Flood (flooded paddy test), 13 to 15 days
In short: as §2

[9] = tested on: pigweed (Amaranthus retroflexus); experiment: Test B pre-/postemergence plant response
In short: (§3)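 Visual injury, 0–100 scale (100 = complete control), rated against controls after 13 to 15 days in greenhouse. Pre-emergence: seeds in loam/sand soil, treated at planting. Post-emergence: 1- to 4-leaf plants (2 to 18 cm) in peat/vermiculite medium. Compounds formulated in non-phytotoxic solvent with surfactant.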

[10] = tested on: wild oat (Avena fatua); experiment: Test B pre-/postemergence plant response
In short: as §3

[11] = tested on: galium (catchweed bedstraw, Galium aparine); experiment: Test B pre-/postemergence plant response; settings: Preemergence
In short: as §3

[12] = tested on: nightshade (eastern black nightshade, Solanum ptycanthum); experiment: Test B pre-/postemergence plant response; settings: Preemergence
In short: as §3

[13] = tested on: sunflower (common oilseed sunflower, Helianthus annuus); experiment: Test B pre-/postemergence plant response; settings: Preemergence
In short: as §3

[14] = 31 g ai/ha, postemergence, scale 0 to 100, 0 is no effect, 100 is complete control
[15] = Postemergence, 62 g ai/ha, scale 0 (no effect) to 100 (complete control), 13 to 15 days
[16] = Postemergence, 125 g ai/ha, visual rating after 13 to 15 days, scale 0 (no effect) to 100 (complete control)
[17] = Postemergence, 250 g ai/ha, scale 0 to 100 (0 no effect, 100 complete control)
[18] = 31 g ai/ha, scale of 0 to 100 where 0 is no effect and 100 is complete control
[19] = 62 g ai/ha, scale of 0 to 100 where 0 is no effect and 100 is complete control
[20] = 125 g ai/ha, scale 0 to 100, 0 is no effect, 100 is complete control
[21] = Preemergence, 31 g ai/ha, scale 0 to 100 (0 no effect, 100 complete control)
[22] = Preemergence, 62 g ai/ha, scale 0 to 100, 0 no effect, 100 complete control
[23] = Preemergence, 125 g ai/ha, scale 0 to 100, 0 no effect, 100 complete control
[24] = 31 g ai/ha, scale 0 to 100 (0 no effect, 100 complete control)
[25] = 62 g ai/ha, scale 0 to 100, 0 no effect, 100 complete control
[26] = 125 g ai/ha, scale 0 to 100, 0 no effect, 100 complete control
[27] = 62 g ai/ha, postemergence, 0 is no effect, 100 is complete control, 13 to 15 days
[28] = Preemergence, 250 g ai/ha, 0 to 100 scale

Cc1cccc(-n2c(-c3ccccc3)ncc(C(=O)C3=C(O)CCCC3=O)c2=O)c1F [Compound 58]
95: Plant response rating, Pigweed [9, 15]
0: Plant response rating, Flood, Rice [5] | Plant response rating, Rice [5, 18] | Plant response rating, Rice [5, 19] | Plant response rating, Rice [5, 20] | Plant response rating, Flood, Barnyardgrass [6] | Plant response rating, Barnyardgrass [6, 18] | Plant response rating, Barnyardgrass [6, 19] | Plant response rating, Barnyardgrass [6, 20] | Plant response rating, Flood, Sedge, Umbrella [7] | Plant response rating, Sedge, Umbrella [7, 18] | Plant response rating, Sedge, Umbrella [7, 19] | Plant response rating, Sedge, Umbrella [7, 20] | Plant response rating, Flood, Ducksalad [8] | Plant response rating, Ducksalad [8, 18] | Plant response rating, Ducksalad [8, 19] | Plant response rating, Ducksalad [8, 20] | Plant response rating, Oat, Wild [10, 21] | Plant response rating, Oat, Wild [10, 22] | Plant response rating, Oat, Wild [10, 23] | Plant response rating, Galium [11, 24] | Plant response rating, Galium [11, 25] | Plant response rating, Sunflower [13, 24]
55: Plant response rating, Sunflower [13, 25]
70: Plant response rating, Chickweed [2, 14] | Plant response rating, Windgrass [4, 17]
5: Plant response rating, Barley [3, 14] | Plant response rating, Barley [3, 15] | Plant response rating, Barley [3, 16]
85: Plant response rating, Canarygrass [1, 17] | Plant response rating, Pigweed [9, 21] | Plant response rating, Oat, Wild [10, 17]
45: Plant response rating, Oat, Wild [10, 14]
80: Plant response rating, Canarygrass [1, 16] | Plant response rating, Chickweed [2, 15] | Plant response rating, Pigweed [9, 14] | Plant response rating, Galium ([11]; 250 g ai/ha, 0 to 100 scale)
90: Plant response rating, Chickweed [2, 16] | Plant response rating, Chickweed [2, 17] | Plant response rating, Nightshade [12, 24]
50: Plant response rating, Windgrass [4, 15]
35: Plant response rating, Windgrass [4, 14]
100: Plant response rating, Pigweed [9, 17] | Plant response rating, Pigweed [9, 23]
98: Plant response rating, Pigweed [9, 16] | Plant response rating, Pigweed [9, 22] | Plant response rating, Nightshade [12, 25] | Plant response rating, Nightshade [12, 26]
65: Plant response rating, Sunflower [13, 26]
30: Plant response rating, Galium [11, 26]
60: Plant response rating, Canarygrass [1, 14] | Plant response rating, Canarygrass [1, 15] | Plant response rating, Windgrass [4, 16] | Plant response rating, Oat, Wild [10, 15] | Plant response rating, Oat, Wild [10, 16]
10: Plant response rating, Barley [3, 17]

CCCCc1ncc(C(=O)C2=C(O)CCCC2=O)c(=O)n1-c1ccccc1C [Compound 62]
80: Plant response rating, Chickweed [2, 17]
30: Plant response rating, Barley [3, 17] | Plant response rating, Windgrass [4, 14] | Plant response rating, Flood, Ducksalad [8]
10: Plant response rating, Oat, Wild [10, 15] | Plant response rating, Nightshade [12, 24] | Plant response rating, Sunflower [13, 25] | Plant response rating, Sunflower [13, 26]
50: Plant response rating, Windgrass [4, 17]
45: Plant response rating, Pigweed [9, 21]
35: Plant response rating, Windgrass [4, 15] | Plant response rating, Windgrass [4, 16]
100: Plant response rating, Pigweed [9, 16] | Plant response rating, Pigweed [9, 17] | Plant response rating, Pigweed [9, 23]
5: Plant response rating, Canarygrass [1, 17] | Plant response rating, Barley [3, 15] | Plant response rating, Barley [3, 16] | Plant response rating, Oat, Wild [10, 14]
70: Plant response rating, Chickweed [2, 14] | Plant response rating, Chickweed [2, 15]
95: Plant response rating, Nightshade [12, 25]
98: Plant response rating, Pigweed [9, 14] | Plant response rating, Pigweed [9, 15] | Plant response rating, Pigweed [9, 22] | Plant response rating, Nightshade [12, 26]
40: Plant response rating, Oat, Wild [10, 17]
75: Plant response rating, Chickweed [2, 16]
0: Plant response rating, Canarygrass [1, 14] | Plant response rating, Canarygrass [1, 15] | Plant response rating, Canarygrass [1, 16] | Plant response rating, Barley [3, 14] | Plant response rating, Flood, Rice [5] | Plant response rating, Rice [5, 18] | Plant response rating, Rice [5, 19] | Plant response rating, Rice [5, 20] | Plant response rating, Flood, Barnyardgrass [6] | Plant response rating, Barnyardgrass [6, 18] | Plant response rating, Barnyardgrass [6, 19] | Plant response rating, Barnyardgrass [6, 20] | Plant response rating, Flood, Sedge, Umbrella [7] | Plant response rating, Sedge, Umbrella [7, 18] | Plant response rating, Sedge, Umbrella [7, 19] | Plant response rating, Sedge, Umbrella [7, 20] | Plant response rating, Ducksalad [8, 18] | Plant response rating, Ducksalad [8, 19] | Plant response rating, Ducksalad [8, 20] | Plant response rating, Oat, Wild [10, 21] | Plant response rating, Oat, Wild [10, 22] | Plant response rating, Oat, Wild [10, 23] | Plant response rating, Galium ([11]; 250 g ai/ha, 0 to 100 scale) | Plant response rating, Galium [11, 24] | Plant response rating, Galium [11, 25] | Plant response rating, Galium [11, 26] | Plant response rating, Sunflower [13, 24]
25: Plant response rating, Oat, Wild [10, 16]

CCCCn1c(CCC)ncc(C(=O)C2=C(O)CCCC2=O)c1=O [Compound 75]
70: Plant response rating, Windgrass [4, 16]
95: Plant response rating, Galium [11, 26] | Plant response rating, Nightshade [12, 24]
85: Plant response rating, Chickweed [2, 14] | Plant response rating, Galium [11, 25] | Sunflower plant response rating ([13]; 250 g ai/ha, 0 to 100 scale)
60: Plant response rating, Flood, Barnyardgrass [6] | Plant response rating, Oat, Wild [10, 17] | Plant response rating, Galium [11, 24]
55: Plant response rating, Sunflower [13, 25]
45: Plant response rating, Flood, Rice [5]
100: Plant response rating, Chickweed [2, 17] | Plant response rating, Pigweed [9, 14] | Pigweed plant response rating (0 to 100 scale) [9, 27] | Plant response rating, Pigweed [9, 16] | Plant response rating, Pigweed [9, 17] | Plant response rating, Pigweed [9, 22] | Plant response rating, Pigweed [9, 23] | Pigweed plant response rating [9, 28] | Nightshade plant response rating ([12]; 250 g ai/ha, 0 to 100 scale)
75: Plant response rating, Sunflower [13, 26]
30: Plant response rating, Windgrass [4, 14] | Plant response rating, Ducksalad [8, 19] | Plant response rating, Sunflower [13, 24]
98: Plant response rating, Chickweed [2, 16] | Plant response rating, Pigweed [9, 21] | Galium plant response rating ([11]; 250 g ai/ha, 0 to 100 scale) | Plant response rating, Nightshade [12, 25] | Plant response rating, Nightshade [12, 26]
90: Chickweed plant response rating (0 to 100 scale) [2, 27] | Plant response rating, Windgrass [4, 17]
20: Plant response rating, Barnyardgrass [6, 19] | Oat, Wild plant response rating (0 to 100 scale) [10, 27]
0: Plant response rating, Canarygrass [1, 14] | Canarygrass plant response rating (0 to 100 scale) [1, 27] | Plant response rating, Canarygrass [1, 16] | Plant response rating, Canarygrass [1, 17] | Plant response rating, Barley [3, 14] | Barley plant response rating (0 to 100 scale) [3, 27] | Plant response rating, Barley [3, 16] | Plant response rating, Barley [3, 17] | Plant response rating, Rice [5, 19] | Plant response rating, Sedge, Umbrella [7, 19] | Plant response rating, Oat, Wild [10, 14] | Plant response rating, Oat, Wild [10, 21] | Plant response rating, Oat, Wild [10, 22] | Plant response rating, Oat, Wild [10, 23] | Oat, Wild plant response rating [10, 28]
50: Windgrass plant response rating (0 to 100 scale) [4, 27] | Plant response rating, Flood, Sedge, Umbrella [7] | Plant response rating, Flood, Ducksalad [8] | Plant response rating, Oat, Wild [10, 16]
